Test results reported in a compilation of properties of binary mixtures (doi:10.1021/je5008857).

Experiment: xn = mol fraction of the nth substance listed
Conditions: 101 kPa

CC(=O)[O-].[NH4+] + CC(=O)[O-].CC[n+]1ccn(C)c1
Conditions	electrical conductivity [S/m]	viscosity [mPa·s]
298.15 K, x1 = 0.0503	0.255	153
298.15 K, x1 = 0.0999	0.226	186
298.15 K, x1 = 0.1703	0.181	261
298.15 K, x1 = 0.2498	0.146	389
298.15 K, x1 = 0.328	0.114	572
303.15 K, x1 = 0.0503	0.337	111.7
303.15 K, x1 = 0.0999	0.299	134.7
303.15 K, x1 = 0.1703	0.242	186
303.15 K, x1 = 0.2498	0.199	271
303.15 K, x1 = 0.328	0.158	390
303.15 K, x1 = 0.4491	0.106	673
308.15 K, x1 = 0.0503	0.431	83.9
308.15 K, x1 = 0.0999	0.389	100.1
308.15 K, x1 = 0.1703	0.319	135.5
308.15 K, x1 = 0.2498	0.266	194
313.15 K, x1 = 0.0503	0.542	64.6
313.15 K, x1 = 0.2498	0.349	142.3
313.15 K, x1 = 0.4491	0.201	321
318.15 K, x1 = 0.0503	0.671	50.7
318.15 K, x1 = 0.0999	0.617	59.1
318.15 K, x1 = 0.1703	0.519	77.2
318.15 K, x1 = 0.4491	0.267	230
323.15 K, x1 = 0.0503	0.862	40.5
323.15 K, x1 = 0.0999	0.796	46.6
323.15 K, x1 = 0.1703	0.641	59.9
323.15 K, x1 = 0.2498	0.562	81.3
323.15 K, x1 = 0.328	0.471	108.4
323.15 K, x1 = 0.4491	0.347	169

CC(=O)[O-].[Na+] + CC(=O)[O-].CC[n+]1ccn(C)c1
Conditions	electrical conductivity, x1 = 0.0501 [S/m]	electrical conductivity, x1 = 0.1001 [S/m]	electrical conductivity, x1 = 0.1605 [S/m]	viscosity, x1 = 0.0501 [mPa·s]	viscosity, x1 = 0.1001 [mPa·s]	viscosity, x1 = 0.1605 [mPa·s]
298.15 K	0.232	0.189	0.152	160	205	300
303.15 K	0.305	–	0.207	117.1	–	210
308.15 K	0.392	0.327	0.272	88	109.3	153
313.15 K	0.491	0.416	0.352	67.7	83.1	113.7
318.15 K	0.606	0.518	0.442	53.2	64.7	86.9
323.15 K	0.734	0.632	0.537	42.7	51.3	67.9

CCS(=O)(=O)[O-].[NH4+] + CC(=O)[O-].CC[n+]1ccn(C)c1
Conditions	electrical conductivity, x1 = 0.05 [S/m]	electrical conductivity, x1 = 0.0999 [S/m]	electrical conductivity, x1 = 0.1701 [S/m]	viscosity, x1 = 0.05 [mPa·s]	viscosity, x1 = 0.0999 [mPa·s]	viscosity, x1 = 0.1701 [mPa·s]
298.15 K	0.247	0.2	0.164	157	210	299
303.15 K	0.323	0.266	0.222	115	151	210
308.15 K	0.415	0.346	0.293	86.3	111.2	151
313.15 K	0.522	0.442	–	66.2	83.9	–
318.15 K	–	0.553	0.481	–	64.6	84.7
323.15 K	0.775	–	–	41.3	–	–

N#C[S-].[Na+] + CC(=O)[O-].CC[n+]1ccn(C)c1
x1 = 0.0502
Conditions	electrical conductivity [S/m]	viscosity [mPa·s]
298.15 K	0.242	150
303.15 K	0.316	110.4
308.15 K	0.404	83.3
313.15 K	0.504	64.4
318.15 K	0.618	50.9
323.15 K	0.734	40.9

[Cl-].[NH4+] + CC(=O)[O-].CC[n+]1ccn(C)c1
Conditions	electrical conductivity, x1 = 0.0505 [S/m]	electrical conductivity, x1 = 0.0999 [S/m]	electrical conductivity, x1 = 0.1702 [S/m]	electrical conductivity, x1 = 0.25 [S/m]	electrical conductivity, x1 = 0.3297 [S/m]	viscosity, x1 = 0.0505 [mPa·s]	viscosity, x1 = 0.0999 [mPa·s]	viscosity, x1 = 0.1702 [mPa·s]	viscosity, x1 = 0.25 [mPa·s]	viscosity, x1 = 0.3297 [mPa·s]
298.15 K	–	0.19	0.139	0.0911	0.0567	–	236	405	775	1608
303.15 K	–	0.255	0.192	0.13	0.0843	–	168	278	511	1040.8
308.15 K	0.398	0.333	0.259	0.179	0.121	92.9	122.6	196	348	693
313.15 K	0.501	–	–	0.242	0.169	71	–	–	245	478
318.15 K	–	0.537	0.439	0.32	0.23	–	70.2	106.2	177	339
323.15 K	–	0.661	0.552	0.414	0.305	–	54.7	80.6	130.5	246

CC(=O)[O-].CC[n+]1ccn(C)c1 + CC(=O)[O-].[NH4+]
x2 = 0
Conditions	electrical conductivity [S/m]	viscosity [mPa·s]
298.15 K	0.287	126.3
303.15 K	0.374	93.6
308.15 K	0.473	71.3
313.15 K	0.587	55.5
318.15 K	0.76	44.2

CC(=O)[O-].CC[n+]1ccn(C)c1 + CC(=O)[O-].[Na+]
x2 = 0
Conditions	electrical conductivity [S/m]	viscosity [mPa·s]
298.15 K	0.287	126.3
303.15 K	0.374	93.6
308.15 K	0.473	71.3
313.15 K	0.587	55.5
318.15 K	0.76	44.2
323.15 K	0.918	35.7

CC(=O)[O-].CC[n+]1ccn(C)c1 + CCS(=O)(=O)[O-].[NH4+]
x2 = 0
Conditions	electrical conductivity [S/m]	viscosity [mPa·s]
298.15 K	0.287	126.3
308.15 K	0.473	71.3
313.15 K	0.587	55.5
323.15 K	0.918	35.7

CC(=O)[O-].CC[n+]1ccn(C)c1 + N#C[S-].[Na+]
x2 = 0
Conditions	electrical conductivity [S/m]	viscosity [mPa·s]
298.15 K	0.287	126.3
308.15 K	0.473	71.3
318.15 K	0.76	44.2
323.15 K	0.918	35.7

CC(=O)[O-].CC[n+]1ccn(C)c1 + [Cl-].[NH4+]
x2 = 0
Conditions	electrical conductivity [S/m]	viscosity [mPa·s]
298.15 K	0.287	126.3
303.15 K	0.374	93.6
313.15 K	0.587	55.5
323.15 K	0.918	35.7
